Test results as given in patent US20030060485A1, “(+)-norcisapride” (priority 1997, published 2003).
Where two headings read alike, the source gives them in different places.

Legend:
[1] = tested on: central dopamine antagonism (apomorphine challenge); assay: Apomorphine, tryptamine, norepinephrine (ATN) test in rats: apomorphine challenge; type: in vivo; conditions: Rattus norvegicus, subcutaneous pretreatment, central dopamine antagonistic activity
Source text: (§1) The absence of central dopamine antagonistic and serotonin antagonistic activity of the subject compounds is evidenced by the experimental data obtained in the combined apomorphine (APO), tryptamine (TRY) and norepinephrine (NOR) test in rats. Said combined apomorphine, tryptamine and norepinephrine test is described in Arch. Int. Pharmacodyn., 227, 238-253 (1977) and provides an empirical evaluation of the relative specificity with which drugs may effect particular neurotransmitter systems centrally (CNS) as well as peripherally. […] Central dopamine antagonism is evaluated by challenging rats, subcutaneously pretreated with different doses of the test compound, with apomorphine which is a dopamine agonist. Next, serotonin antagonism is evaluated by challenging the same rats, subcutaneously pretreated with different doses of the test compound, with tryptamine which is an agonist at serotonin 5HT2-receptors. Both central and peripheral serotonin antagonism can be assessed in this test. Centrally acting serotonin antagonists are potential antipsychotic drugs, in particular when simultaneously displaying dopamine antagonism in the first part of this test. Finally, α-adrenergic antagonistic activity of the test compounds is evaluated by challenging the same rats, subcutaneously pretreated with different doses of the test compound, with norepinephrine which is an a-adrenergic agonist. […]

[2] = tested on: guinea-pig colon ascendens; assay: Guinea-pig colon coaxial stimulation; type: cell-based, Guinea-pigs; conditions: Cavia porcellus; guinea-pig colon ascendens segments; read-out: EC50 (concentration that stimulates the maximal tone effect by 50%)
Method: Guinea-pigs of both sexes (body weight±450 g), were killed by decapitation. The colon ascendens was removed and rinsed, whereafter segments of approximately 3 cm length were prepared. These strips were suspended in an organ bath (100 ml) and connected to an isotonic transducer under a preload of 2 g; [Displacement Transducer Control Unit (Janssen Scientific Instrument Division); HP 7 DGDT 1000 (Hewlett-Packard)]. The organ bath was filled with a DeJalon solution (37.5° C.), gassed with a mixture of 95% O2 and 5% CO2. After a stabilization period of 20 minutes, methacholine 3.10^−6 M was added to the bathfluid in order to evaluate the potential maximal effect of the strip (contact time 30 seconds); thereafter, the bathfluid was refreshed. This was repeated at intervals of 10 minutes until a reproducible answer was obtained after addition of methacholine. Thereafter, the test compound was added for 10 minutes. Afterwards, without refreshing the bathfluid, cisapride 3.10^−7 M was added to evaluate a possible 5HT4 effect. When the contraction, caused by cisapride obtained a stable maximal level, methacholine 3.10^−6 M to evaluate a potential anti-cholinergic effect, was added to the bath fluid until a maximal contraction was obtained. The EC50 (i.e. the concentration that stimulates the maximal tone effect by 50%) of a compound, was calculated using linear regression analysis.

[3] = tested on: MgSO4-induced intestinal lavage; assay: MgSO4 induced intestinal lavage in dogs; type: in vivo, Beagle dogs; conditions: Canis lupus familiaris, p.o., 1 hour before magnesium sulphate challenge
Method: Beagle dogs (of both sexes and varying in body weight, 16 hours deprived from food) were orally pretreated with (+)-norcisapride or solvent and challenged 1 hour later with an oral administration of magnesium sulphate (MgSO4.7H2O, 64g/l, 0.26M; 200 ml). The onset of MgSO4-induced intestinal lavage was assessed over a period of 4 hours after challenge. Liquid stools within 4 hours occured almost never in control animals treated with distilled water (2.5% false positives; n=200) and were considered to reflect significant acceleration of the MgSO4-induced intestinal lavage. Doses in the active dose range were given to five animals each, tested in separate experimental sessions including solvent-treated control animals. All-or-none criteria, based on the distribution of the results obtained in a large number of solvent-treated animals, were used to calculate ED50-values (effective dose) and 95% confidence limits according to Finney's iterative method (Finney, 1962).

[4] = tested on: serotonin 5HT2-receptors (tryptamine challenge); assay: Apomorphine, tryptamine, norepinephrine (ATN) test in rats: tryptamine challenge; type: in vivo; conditions: subcutaneous pretreatment
Source text: as §1

5-HT3 receptor = biological target: T1, 5-HT3 receptor (Cavia porcellus, UniProt O70212); assay: 5-hydroxykynuramine antagonism on the guinea-pig ileum; type: cell-based, Guinea pigs; conditions: guinea-pig ileum segments; 5-OH-K 3.10^-6 M; read-out: IC50 reducing the 5-OH-K induced effect by 50%
T1 construct: from tissue; host or cells: guinea-pig ileum segments in organ bath
T1 sequence (O70212 24-490 limits assumed): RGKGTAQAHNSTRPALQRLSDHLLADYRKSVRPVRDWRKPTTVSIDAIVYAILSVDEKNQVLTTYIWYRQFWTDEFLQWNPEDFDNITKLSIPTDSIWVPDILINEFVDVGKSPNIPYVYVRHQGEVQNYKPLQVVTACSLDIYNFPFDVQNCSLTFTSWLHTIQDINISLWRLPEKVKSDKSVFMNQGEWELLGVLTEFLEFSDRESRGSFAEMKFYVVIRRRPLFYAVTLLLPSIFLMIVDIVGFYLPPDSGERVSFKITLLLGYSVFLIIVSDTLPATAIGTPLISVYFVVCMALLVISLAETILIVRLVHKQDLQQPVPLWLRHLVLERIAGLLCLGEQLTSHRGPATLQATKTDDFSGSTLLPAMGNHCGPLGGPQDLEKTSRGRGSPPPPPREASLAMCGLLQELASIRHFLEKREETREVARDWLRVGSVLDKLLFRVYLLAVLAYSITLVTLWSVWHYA
Method: Since 5-OH—K (5-hydroxykynuramine) is a specific agonist at the 5-HT3 receptor, this test evaluates the potential 5-HT3 antagonistic effects.
Guinea pigs of both sexes, body weight±450 g, were killed by decapitation. Non-terminal, (distal 10 cm discarded), intact ileum segments, strips were cleansed, 4.5 cm long, were vertically suspended with a preload of 0.75 g in an 100 ml bath for isotonic recording; [(Displacement Transducer Control Unit; Janssen Scientific Instrument Division), HP7 DGDT-1000 (Hewlett-Packard CY)]. The organ bath was filled with a Tyrode solution, (37.5° C.), gassed with a mixture of 95% O2 and 5% CO2. After a stabilisation period of 20 minutes, methacholine (3.10^−6 M, 30 seconds contacttime) was added to the bathfluid in order to evaluate the potential maximal contraction, whereafter the bathfluid was refreshed, Subsequently, the serotonin agonist 5-OH-K (30 seconds contact time) was added (final concentration 3.10^−6 M) at intervals of 10 minutes, the bath fluid being refreshed 30 seconds after each addition. After reaching reproducible contractile effects, a single dose of the test compound was added to the bath fluid followed 5 minutes later by addition of 5-OH—K. After establishing the log concentration-responds curve of the test compound, IC50 values reducing the 5-OH—K induced effect by 50% were calculated by linear regression analysis.

[5] = tested on: guinea-pig ileum longitudinal muscle layer with myenteric plexus; assay: Guinea-pig ileum coaxial stimulation; type: cell-based, Dunkin-Hartley guinea-pigs; conditions: Cavia porcellus; guinea-pig ileum strips, electrical stimulation 0.1 Hz, 1 ms, submaximal; read-out: EC50 (concentration that stimulates the response to electrical stimulation by 50%)
Source text: Dunkin-Hartley guinea-pigs of either sex (weighing between 600-900 g) were killed by decapitation. The ileum was removed and cleansed with warmed and oxygenated Krebs-Henseleit solution. Parts of the ileum (15 cm) were slipped over a glass pipette. The longitudinal muscle layer with myenteric plexus was removed by means of a cotton thread moistened with Krebs solution. Strips with a length of 8 cm were folded and these strips (4 cm) were mounted between two platinum electrodes (8 cm length, 0.5 cm apart). The strips were suspended with a preload of 1.5 g in 100 ml Krebs-Henseleit solution (37.5° C.), gassed with a mixture of 95% O2 and 5% CO2. The preparations were excited with single rectangular stimuli [1 ms; 0.1 Hz; submaximal response (current leading to 80% of maximal response), from a programmable stimulator (Janssen Scientific Instruments Division)]. Contractions were measured isometrically (Statham UC2, Janssen Scientific Instruments amplifier, Kipp BD-9 pen-recorder). During the stabilization period of 30 minutes, the strips were repeatedly stretched, in order to obtain a steady state tension of 1.5 g. Before starting the electrical stimulation, a cumulative concentration response curve of acetylcholine (3.10^−9, 10^−8, 3.10^−8 and 10^−7 M) was given. The bath fluid was replaced with fresh Krebs solution and the strips were allowed to stabilize for another 30 minutes. […]

[6] = tested on: α-adrenergic (norepinephrine challenge); assay: Apomorphine, tryptamine, norepinephrine (ATN) test in rats: norepinephrine challenge; type: in vivo; conditions: Rattus norvegicus, subcutaneous pretreatment
Source text: as §1

[7] = following oral administration; cited from earlier work

Row | EC50 [2] | IC50 (5-HT3 receptor) | EC50 [5] | Compound | ED50 [1] | ED50 ([3]; liquid stools within 1 hour after challenge, read-out: ED50, onset of diarrhoea with 1 hour) | ED50 ([3]; liquid stools within 2 hours after challenge, read-out: ED50, onset of diarrhoea with 2 hours) | ED50 ([3]; liquid stools within 3 hours after challenge, read-out: ED50, onset of diarrhoea with 3 hours) | ED50 ([3]; liquid stools within 4 hours after challenge, read-out: ED50, onset of diarrhoea with 4 hours) | ED50 TRY convulsions ([4]; central serotonin antagonistic activity) | ED50 TRY hyperaemia ([4]; peripheral serotonin antagonistic activity) | ED50 [6] | unchanged cisapride as share of urinary and fecal recovery [7]
1 | 1.9 µM | 0.093 µM | 0.6 µM | COc1cc(N)c(Cl)cc1C(=O)N[C@@H]1CCNC[C@@H]1OC (stereo in doubt) [Compound 1, (+)-cis-4-amino-5-chloro-2-methoxy-N-(3-methoxy-4-piperidinyl)benzamide] | > 40 mg/kg | 0.15 mg/kg | 0.064 mg/kg | 0.049 mg/kg | 0.032 mg/kg | >40 mg/kg | 4.7 mg/kg | > 40 mg/kg | –
2 | 11 µM | 0.45 µM | 5 µM | COc1cc(N)c(Cl)cc1C(=O)N[C@H]1CCNC[C@H]1OC (stereo in doubt) [Compound 2, (−)-cis-4-amino-5-chloro-2-methoxy-N-(3-methoxy-4-piperidinyl)benzamide] | – | – | – | – | – | – | – | – | –
3 | – | – | – | COc1cc(N)c(Cl)cc1C(=O)NC1CCN(CCCOc2ccc(F)cc2)CC1OC (stereo not drawn) [cisapride] | – | – | – | – | – | – | – | – | less than 10%
